Assay results from ChEMBL document CHEMBL1129549, “Complexes of HIV-1 reverse transcriptase with inhibitors of the HEPT series reveal conformational changes relevant to the design of potent non-nucleoside inhibitors” (J Med Chem, 1996).

Target: Human immunodeficiency virus type 1 reverse transcriptase (Human immunodeficiency virus 1, UniProt Q72547)
Assay: Inhibitory activity against HIV-1 reverse transcriptase

| IC50 [µM] | Structure (SMILES) |
| --- | --- |
| 0.006 | CC(C)c1c(Cc2ccccc2)n(COCc2ccccc2)c(=O)[nH]c1=O |
| 17 | Cc1c(Sc2ccccc2)n(COCCO)c(=O)[nH]c1=O [HEPT] |
